In patent publication US20210000778A1:

Tests used:
[1] = tested on: BxPC3 pancreatic cancer cells; assay: Oral efficacy in human pancreatic cancer xenografts; type: in vivo, CD-1 nude mice; settings: BxPC-3 xenograft; oral dose of 100 mg/week for 4 weeks; vs 5% dextrose or untreated
Protocol: An acclimation period of 7 days was allowed between the arrival of the animal at the study site before tumor inoculation and experimentation. Mice were inoculated subcutaneously (SC) in the right flank with 2×10^6 human H460 NSCLC or BxPC3 pancreatic cancer cells that were suspended in 0.1 mL of Dulbeco's Phosphate Buffered Salt (PBS) solution using a 1 cc syringe with a 27-5/8 gauge needle. Tumor dimensions (length and width) were measured daily before, during and after treatment (using Vernier calipers) and the tumor volume was calculated using the prolate ellipsoid formula: (length× width^2)/2. Treatment with test or control articles began 8 days post tumor cell implantation when the tumor was approximately 300 mm^3.
A similar study was conducted in CD-1 nude mice (n=9) inoculated with 2×10^6 BxPC-3 cells. The study was initiated when tumors reached an average size of 150 mm^3 (day 0) and CPI-613 was administered at an oral dose of 100 mg/week for 4 weeks. A comparator arm (n=9) was conducted with IP treatment at a weekly dose of 25 mg/kg.

[2] = Pardee et al., Clin Cancer Res. 2014; cited from earlier work
[3] = tested on: Human H460 NSCLC cells; assay: Oral efficacy in human non-small cell lung cancer xenografts; type: in vivo, CD1-Nu/Nu female mice; settings: H460 xenograft; oral 100 mg/kg on day 8, 15, 22, 29; vs 5% dextrose or untreated
Protocol: Human H460 NSCLC cells were obtained from American Type Cell Culture (ATCC) (catalog no. HTB-177, Manassas, Va.). These cells tested negative for viral contamination using the Mouse Antibody Production (MAP) test, performed by Charles River Labs Molecular Division, upon the receipt of the tumor cells from ATCC. The tumor cells were maintained at 37° C. in a humidified 5% CO2 atmosphere in T225 tissue culture flasks containing 50 mL of Roswell Park Memorial Institute (RPMI)-1640 solution with 10% Fetal Bovine Serum (FBS) and 2 mM L-glutamine. Cells were split at a ratio of 1:10 every 2-3 days by trypsinization and resuspended in fresh medium in a new flask. Cells were harvested for experiments in the same way at 70-90% confluency.
CD1-Nu/Nu female mice, ˜4-6 weeks old were obtained from Charles River Laboratories. Mice were housed 5 to a cage in a micro-isolator room in the Department of Animal Laboratory Research of New York State University (SUNY) at Stony Brook. Light-dark cycles were 12 h each daily, with light from 7 a.m. to 7 p.m. […]
An acclimation period of 7 days was allowed between the arrival of the animal at the study site before tumor inoculation and experimentation. […] Tumor dimensions (length and width) were measured daily before, during and after treatment (using Vernier calipers) and the tumor volume was calculated using the prolate ellipsoid formula: (length× width^2)/2. […]

[4] = tested on: androgen-resistance prostate PC-3 cancer cells; assay: PC-3 flank model of androgen-resistant prostate cancer; type: in vivo; settings: 2.5 mg/kg or 10 mg/kg, 2-3 times per week for five weeks
[5] = tested on: LnCap; assay: In vitro killing of prostate cancer cell lines, CellTiter 96 cell survival; type: cell-based; settings: Homo sapiens, 60 hrs in RPMI with 10% FBS
Protocol: (§1) Cell survival was assayed with CellTiter 96® Aqueous One Solution Cell Proliferation Assay (Promega). EC50 values were calculated.

[6] = tested on: PC-3; assay: as above; type: cell-based; settings: Homo sapiens, 60 hrs in RPMI with 10% FBS
Protocol: as §1

[7] = tested on: RWPI-1; assay: as above; type: cell-based; settings: 60 hrs in RPMI with 10% FBS
Protocol: as §1

[8] = tested on: 22RV1; assay: as above; type: cell-based; settings: Homo sapiens, 60 hrs in RPMI with 10% FBS
Protocol: as §1

[9] = tested on: DU 145; assay: as above; type: cell-based; settings: Homo sapiens, 60 hrs in RPMI with 10% FBS
Protocol: as §1

SMILES: O=C(O)CCCCC(CCSCc1ccccc1)SCc1ccccc1 (centres unmarked)
- Tumor growth [1]: especially pronounced
- half-life after IV dosing [2]: 1 to 2 h
- Tumor growth [3]: grew much more slowly
- Toxicity [4]: without toxicity
- Survival of the mice ([4]; vs saline control): increased survival
- Tumor growth (tumor volume over time) ([4]; vs saline control): significantly slower
- EC50 [5]: 114 µM
- EC50 [6]: 202 µM
- EC50 [7]: 147 µM
- EC50 [8]: 175 µM
- EC50 [9]: 99 µM
